From patent publication US20220370467A1, “USING OF A PPAR-DELTA AGONIST IN THE TREATMENT OF KIDNEY DISEASE” (Reneo Pharmaceuticals, Inc., priority 2019, published 2022) come the findings set out here.

One experiment concerns the target T1, LXRα (Homo sapiens, UniProt Q13133).
T1 sequence (Q13133 1-447): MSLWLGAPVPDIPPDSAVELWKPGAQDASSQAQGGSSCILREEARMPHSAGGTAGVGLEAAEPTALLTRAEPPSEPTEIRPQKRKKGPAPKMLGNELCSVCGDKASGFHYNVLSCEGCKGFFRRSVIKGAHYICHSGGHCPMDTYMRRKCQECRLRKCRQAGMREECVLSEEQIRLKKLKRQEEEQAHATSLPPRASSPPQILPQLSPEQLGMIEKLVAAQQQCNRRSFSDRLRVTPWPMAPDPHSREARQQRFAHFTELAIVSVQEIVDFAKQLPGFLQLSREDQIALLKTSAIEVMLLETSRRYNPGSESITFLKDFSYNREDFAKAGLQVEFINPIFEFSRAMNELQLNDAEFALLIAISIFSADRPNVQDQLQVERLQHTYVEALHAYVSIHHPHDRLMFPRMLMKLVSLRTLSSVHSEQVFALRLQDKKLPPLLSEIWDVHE
In words: activity on nuclear receptor LXRα.

The subject of experiment [1] is B6129S1 hybrid Col4a3−/− mice. In words: Mouse Alport model of kidney fibrosis, Study 1. In kind it is in vivo. From the text: Mice with mutations in one of the collagen IV genes of glomerular basement membrane collagen, Collagen IV-α3/α4/α5, have defects in glomerular function with development of kidney fibrosis. These mice develop renal dysfunction and die prematurely of renal failure with specific timing dependent on the strain background upon which the mutation is present.
Generation of Col4a3^−/−mice was as described in Miner, J. H., and Sanes, J. R. (1996), J. Cell Biol. 135:1403-1413. Studies of Compound 1 efficacy in Alport models of kidney fibrosis were performed using mice on two different strain backgrounds. Study 1 used B 6129S1 F1 hybrid Alport mice that usually reach end stage renal disease (ESRD) at about 17 to 19 weeks. These were generated by crosses between C57BL6/J (B 6) and 129S1/Sv1mJ (129S1) Alport mice. Study 2 used inbred 129S1 Col4a3^−/− mice, which usually reach ESRD at about 11 to 13 weeks.
Study 1—B6129S1 hybrid Col4a3^−/− mice were given administrations via intraperitoneal injection of either vehicle (PBS) or Compound 1 (10 mg/kg) once a day from 6 to 17-weeks of age. There were 12 mice per group. B6129S1 hybrid Col4a3^+/− mice were used as non-disease controls. Compound 1 was dissolved at 2 mg/mL in PBS twice a week. The dosing volume was calculated as body weight (g)*5 μL (e.g. body weight 20 g: 20*5=100 μL).
Urine and blood samples were collected at the time points of 12, 15, and 17-weeks of age for B6129S1 hybrid Col4a3^+/−, −/− mice and at 8 and 10-weeks of age for inbred 129S1 Col4a3^−/− mice. Urinary protein concentration was determined by Bradford assay (Cat. 5000006, Bio-Rad) and comparison with bovine serum albumin standards. Urinary creatinine was measured by QuantiChrom™ Creatinine Assay Kit (Cat.DICT-500, BioAssay systems) and used to normalize the amount of urine. Blood urea nitrogen (BUN) levels were measured by QuantiChrom™ Urea Assay Kit (Cat.DUR2-100, BioAssay systems). Urine and blood samples were stored at −20° C. and −80° C. respectively after collection and subsequently analyzed.
For biochemistry, kidneys were collected from 15 and 17-week old B 6129S1 hybridCol4a3^+/−, −/− mice; and from 8 and 10-week old inbred 129S1 Col4a3^−/− mice. Collected kidneys were quickly frozen by liquid nitrogen and stored at −80° C. Kidneys were minced in cold PBS containing protease inhibitor (Cat. 786-108, G-BIOSCIENCES), centrifuged, and supernatants were removed. Tissue pellets were washed with PBS and centrifuged again. Tissue pellets were lysed with RIPA buffer containing protease inhibitor and phosphatase inhibitor (Sigma-Aldrich, Cat. P5726). Protein concentration was measured by BCA assays (Cat. 23227, ThermoFisher). The following antibodies were used in western blotting: anti-kidney injury molecule 1 (KIM1) antibody (AF1817, R&D), anti-Lipocalin2/NGAL antibody (ab70287, abcam), anti-phosho-STAT3 antibody (#9145, CST), anti-CTGFantibody (sc-365970, Santa Cruz), anti-TGFb 1,2,3 antibody (MAB1835, R&D), anti-Fibronectin antibody (F3648,Sigma), anti-alpha smooth muscle acting (SMA) antibody (F3777, Sigma), anti-Collagen I antibody (1310-01, SouthernBiotech), anti-Collagen IV antibody (1340-01, SouthernBiotech), anti-alpha Tubulin antibody (#2144, CST).
For all groups, analysis includes measurement of blood urea nitrogen and urinary albumin: creatinine ratios. The analysis also includes renal histopathology (glomerulosclerosis and tubulo-interstitial fibrosis; and analysis of glomerular basement membrane and podocyte ultrastructure. Plasma samples are analyzed for Compound 1 concentration to ensure adequate circulating levels for efficient target engagement. qRT-PCR is performed using RNA from several relevant tissues to examine expression of known transcriptional targets of PPARδ (e.g., PGC1α).
All data are presented as mean±SEM. Statistical significance was determined by Oneway ANOVA with Dunnett's multiple comparison for more than three group comparison and Student's t test for two group comparison.

Where [2] appears, read: 10 mg/kg i.p., compared with vehicle-treated mice.
The mark [3] stands for this setting: whole kidneys, western blotting.

“Also recorded” adds a separate entry of the source.

As for `Cc1cc(OC/C=C(/c2ccc(F)cc2)c2ccc(C#CCN3CCOCC3)cc2)ccc1OCC(=O)O` [Compound 1, (E)-[4-[3-(4-Fluorophenyl)-3-[4-[3-(morpholin-4-yl)propynyl]phenyl]allyloxy]-2-methyl-phenoxy]acetic acid], the “activity on LXRα” value at LXRα was “did not show any”. Further, the kidney dysfunction entry in experiment [1] (10 mg/kg i.p. once a day from 6 to 17-weeks of age) was “attenuated”. Moreover, the “blood urea nitrogen (BUN)” value in experiment [1] (10 mg/kg i.p. once a day, at 12 and 17-weeks of age) is “suppressed the increase”. For the same compound, in experiment [1] (10 mg/kg i.p. once a day, at 17-weeks of age (late stage)), the proteinuria result was “suppressed; also recorded: significantly reduced”. Besides, in experiment [1] (10 mg/kg i.p., H&E and Trichrome kidney sections), the renal histology result was “slightly improved”. In experiment [1] (setting [2]), the extent of fibrosis result was “slightly decreased; also recorded: decreased” and the “necrotic regions in the cortex” value is listed as “decreased”. Also, the “infiltration of inflammatory cells” value in experiment [1] (10 mg/kg i.p., microscopic examination of kidney sections) is on record as “slightly reduced”. Moreover, in experiment [1] (setting [3]), the CTGF expression result is on record as “attenuated”, the “Collagen I expression” value is on record as “decreased”, the “Collagen IV expression” value is “decreased” and the NGAL protein level entry is on record as “decreased”. In experiment [1] (setting [3]), the alpha-SMA expression entry is recorded as “decreased”, the fibronectin expression entry is reported as “not changed” and the phosho-Stat3 expression entry is on record as “attenuated”. For the same compound, the KIM-1 protein level entry in experiment [1] (whole kidneys, western blotting, vs vehicle) is on record as “not changed”.
